Reference: paper PMC10551445, “Piperlongumine is a ligand for the orphan nuclear receptor 4A1 (NR4A1)” (Frontiers in Pharmacology, 2023)

Molecular target: orphan nuclear receptor 4A1 (NR4A1) (Homo sapiens, UniProt P22736)
Experiment: ITC with the NR4A1 LBD; also Trp fluorescence quenching (KD […]) and GAL4-NR4A1 reporter assay
Type: binding

Sequence of orphan nuclear receptor 4A1 (NR4A1) (P22736 360-598 limits assumed): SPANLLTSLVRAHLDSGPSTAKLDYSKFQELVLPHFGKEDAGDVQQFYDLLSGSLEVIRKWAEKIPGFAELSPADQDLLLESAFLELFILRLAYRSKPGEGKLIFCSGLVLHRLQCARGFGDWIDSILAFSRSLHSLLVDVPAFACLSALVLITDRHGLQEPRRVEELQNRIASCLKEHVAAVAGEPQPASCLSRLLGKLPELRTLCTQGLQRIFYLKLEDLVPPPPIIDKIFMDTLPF

Question: Which Kd does the source give for COc1cc(/C=C/C(=O)N2CCC=CC2=O)cc(OC)c1OC [piperlongumine] here?
Answer: The Kd was 4.97 µM.
